This note sets out measurements from patent publication US10463658B2, “Method of inhibiting FLT3 kinase” (AROG Pharmaceuticals, LLC, priority 2013, dated 2019).

The assay relates to Molm 13-RES-luc cells that expressed FLT3-ITD/D835Y. Description: MTT assay in tandutinib-resistant Molm 13-RES-luc cells. Format: cell-based. Conditions: Homo sapiens, tandutinib resistant Molm 13 cells, mean of 3 studies with 6 replicates each (n=18), read-out: IC50 pFLT3 (text: cell viability, MTT assay).

One may read the IC50 as the midpoint of a concentration-inhibition curve. `CC1(COc2ccc3c(c2)ncn3-c2ccc3cccc(N4CCC(N)CC4)c3n2)COC1` [Crenolanib, reference compound]: the IC50 was 3.3 nM.
